Laboratory results reported in US5712297A, “Piperdine compounds and their preparation and use” (Novo Nordisk A/S, priority 1989, dated 1998).
Counter-ions that a name gives are not always drawn.

Molecular target: muscarinic acetylcholine receptors
Assay: Inhibition of specific binding of 3H-Oxotremorine-M (3H-Oxo)
Design: species or system rat (male Wistar
Details: rat cortex; 3H-Oxotremorine 1.0 nM; 20 mM Hepes pH 7.4; 30 min at 25° C.
Procedure: The pharmacological properties of the compounds of the present invention (Formula I) can be illustrated by determining their capability to inhibit the specific binding of ^3 H-Oxotremorine-M (^3 H-Oxo).
^3 H-Oxo labels muscarinic receptors in the CNS (with a preference for agonist domaines of the receptors). Three different sites are labelled by 3H-Oxo. These sites have affinity of 1.0, 20 and 3000 nM, respectively. Using the present experimental conditions only the high and medium affinity sites are determined. The inhibitory effects of compounds on ^3 H-Oxo binding reflects the affinity for muscarinic acetylcholine receptors.
All preparations are performed at 0°-4° C. unless otherwise indicated. Fresh cortex (0.1-1 g) from male Wistar rats (150-250 g) is homogenized for 5-10 s in 10 ml 20 mM Hepes pH: 7.4, with an Ultra-Turrax homogenizer. The homogenizer is rinsed with 10 ml of buffer and the combined suspension centrifuged for 15 min at 40,000×g. The pellet is washed three times with buffer. In each step the pellet is homogenized as before in 2×10 ml of buffer and centrifuged for 10 min at 40,000×g. The final pellet is homogenized in 20 mM Hepes pH: 7.4 (100 ml per g of original tissue) and used for binding assay. Aliquots of 0.5 ml is added 25 μl of test solution and 25 μl of ^3 H-Oxotremorine (1.0 nM, final concentration) mixed and incubated for 30 min at 25° C. Non-specific binding is determined in triplicate using Arecoline (1 μg/ml, final concentration) as the test substance. After incubation samples are added 5 ml of ice-cold buffer and poured directly onto Whatman GF/C glass fiber filters under suction and immediately washed 2 times with 5 ml of ice-cold buffer. The amount of radioactivity on the filters are determined by conventional liquid scintillation counting. Specific binding is total binding minus non-specific binding. Test substances are dissolved in 10 ml water (if necessary heated on a steam-bath for less than 5 minutes) at a concentration of 2.2 mg/ml. 25-75% inhibition of specific binding must be obtained before calculation of IC50.
The test value will be given as IC50 (the concentration (ng/ml) of the test substance which inhibits the specific binding of ^3 H-Oxo by 50%). [formula] where Co is specific binding in control assays and Cx is the specific binding in the test assay. (The calculations assume normal mass-action kinetics).

Inhibition in vitro OXO BINDING (IC50: concentration which inhibits the specific binding of 3H-Oxo by 50%) [ng/mL]	SMILES
0.6	CCC/C=C/COc1nsnc1C1=CCCN(C)C1.O=C(O)C(=O)O [Compound 35, trans-3-(4-(2-hexenyloxy)-1,2,5-thiadiazol-3-yl)-1,2,5,6-tetrahydro-1-methylpyridine oxalate]
1.6	CCCCCCSc1nsnc1C1=CCCN(C)C1.O=C(O)C(=O)O [Compound 67, 3-(4-hexylthio-1,2,5-thiadiazol-3-yl)-1,2,5,6-tetrahydro-1-methylpyridine oxalate]
1.9	CCCCCOc1nsnc1C1=CCCN(C)C1.O=C(O)C(=O)O [Compound 6, 1,2,5,6-tetrahydro-1-methyl-3-(4-pentyloxy-1,2,5-thiadiazol-3-yl)pyridine oxalate]
0.4	CCC#CCCOc1nsnc1C1=CCCN(C)C1.O=C(O)C(=O)O [Compound 26, 3-(4-(3-hexynyloxy) -1,2,5-thiadiazol-3-yl)-1,2,5,6-tetrahydro-1-methylpyridine oxalate]
300	CN1CCC=C(c2nonc2N)C1.O=C(O)C(=O)O [Compound 50, 3-(4-amino-1,2,5-oxadiazol-3-yl)-1,2,5,6-tetrahydro-1-methylpyridine oxalate]
0.2	CCCOc1nsnc1C1=CCCN(C)C1.O=C(O)C(=O)O [Compound 3, 1,2,5,6-tetrahydro-1-methyl-3-(4-propoxy-1,2,5-thiadiazol-3-yl)pyridine oxalate]
20	CCCCCCOc1nonc1C1=CCCN(C)C1.O=C(O)C(=O)O [Compound 54, 3-(4-hexyloxy-1,2,5-oxadiazol-3-yl)-1,2,5,6-tetrahydro-1-methylpyridine oxalate]
0.4	CC/C=C/CCOc1nsnc1C1=CCCN(C)C1.O=C(O)C(=O)O [Compound 30, trans-3-(4-(3-hexenyloxy)-1,2,5-thiadiazol-3-yl)-1,2,5,6-tetrahydro-1-methylpyridine oxalate]
6.3	CCCCCCOc1nsnc1C1=CCCNC1.O=C(O)C(=O)O [Compound 37, 1,2,5,6-tetrahydro-3-(4-hexyloxy-1,2,5-thiadiazol-3-yl) pyridine oxalate]
12	CCCCCCCCOc1nsnc1C1=CCCN(C)C1 [Compound 25, 3-(4-octyloxy-1,2,5-thiadiazol-3-yl)-1,2,5,6-tetrahydro-1-methylpyridineoxalate]
1.9	CC(C)CCOc1nsnc1C1=CCCN(C)C1.O=C(O)C(=O)O [Compound 8, 1,2,5,6-tetrahydro-3-(4-isopentyloxy-1,2,5-thiadiazol-3-yl)-1-methylpyridine oxalate]
4.0	CCOCCOCCOc1nsnc1C1=CCCN(C)C1.O=C(O)C(=O)O [Compound 43, 3-(4-(2-(2-ethoxyethoxy)ethoxy)-1,2,5-thiadiazol-3-yl)-1,2,5,6-tetrahydro-1-methylpyridine oxalate]
2.1	CCC#CCCOc1nonc1C1=CCCN(C)C1.O=C(O)C(=O)O [Compound 56, 3-(4-(3-hexynyloxy)-1,2,5-oxadiazol-3-yl)-1,2,5,6-tetrahydro-1-methylpyridine oxalate]
65	CN1CCC=C(c2nonc2Cl)C1.O=C(O)C(=O)O [Compound 52, 3-(4-chloro-1,2,5-oxadiazol-3-yl)-1,2,5,6-tetrahydro-1-methylpyridine oxalate]
0.3	C=CCCCOc1nsnc1C1=CCCN(C)C1.O=C(O)C(=O)O [Compound 23, 3-(4-(4-pentenyloxy)-1,2,5-thiadiazol-3-yl)-1,2,5,6-tetrahydro-1-methylpyridine oxalate]

The next lines start with the compound.

SMILES	Inhibition in vitro OXO BINDING (IC50: concentration which inhibits the specific binding of 3H-Oxo by 50%) [ng/mL]
CSc1nsnc1C1=CCCN(C)C1 [Compound 49, 3-(4-methylthio-1,2,5-thiadiazol-3-yl)-1,2,5,6-tetrahydro-1-methylpyridineoxalate]	0.7
CCCCCCCc1nsnc1C1=CCCN(C)C1 [Compound 58, 3-(4-heptyl-1,2,5-thiadiazol-3-yl)-1,2,5,6-tetrahydro-1-methylpyridinium oxalate]	50
CN1CCC=C(c2nsnc2Cl)C1.O=C(O)C(=O)O [Compound 16, 3-(4-chloro-1,2,5-thiadiazol-3-yl)-1,2,5,6-tetrahydro-1-methylpyridine oxalate]	3.3
CC/C=C\COc1nsnc1C1=CCCN(C)C1.O=C(O)C(=O)O [Compound 31, cis-3-(4-(2-pentenyloxy)-1,2,5-thiadiazol-3-yl)-1,2,5,6-tetrahydro-1-methylpyridine oxalate]	0.7
CC(C)Cc1nsnc1C1=CCCN(C)C1 [Compound 61, 3-(4-isobutyl-1,2,5-thiadiazol-3-yl)-1,2,5,6-tetrahydro-1-methylpyridinium oxalate]	50
CCCCCCNc1nsnc1C1=CCCN(C)C1 [Compound 46, 3-(4-hexylamino-1,2,5-thiadiazol-3-yl)-1,2,5,6-tetrahydro-1-methylpyridineoxalate]	18
CC(C)=CCOc1nsnc1C1=CCCN(C)C1.O=C(O)C(=O)O [Compound 27, 3-(4-(3-methyl-2-butenyloxy)-1,2,5-thiadiazol-3-yl)-1,2,5,6-tetrahydro-1-methylpyridine oxalate]	0.8
CCN1CCC=C(c2nsnc2Cl)C1.O=C(O)C(=O)O [Compound 19, 3-(4-chloro-1,2,5-thiadiazol-3-yl)-1-ethyl-1,2,5,6-tetrahydropyridine oxalate]	92
CCSc1nsnc1C1=CCCN(C)C1.O=C(O)C(=O)O [Compound 65, 3-(4-ethylthio-1,2,5-thiadiazol-3-yl)-1,2,5,6-tetrahydro-1-methylpyridine oxalate]	0.6
CC(=O)Nc1nonc1C1=CCCN(C)C1 [Compound 51, 3-(4-acetylamino-1,2,5-oxadiazol-3-yl)-1,2,5,6-tetrahydro-1-methylpyridineoxalate]	300
CCCCCSc1nsnc1C1=CCCN(C)C1 [Compound 66, 3-(4-pentylthio-1,2,5-thiadiazol-3-yl)-1,2,5,6-tetrahydro-1-methylpyridineoxalate]	1.8
CN1CCC=C(c2nsnc2OCc2ccccc2)C1.O=C(O)C(=O)O [Compound 10, 3-(4-benzyloxy-1,2,5-thiadiazol-3-yl)-1,2,5,6-tetrahydro-1-methylpyridine oxalate]	2.3
CCCc1nsnc1C1=CCCN(C)C1 [Compound 63, 3-(4-propyl-1,2,5-thiadiazol-3-yl)-1,2,5,6-tetrahydro-1-methylpyridinium oxalate]	25
CC(C)Oc1nsnc1C1=CCCN(C)C1 [Compound 5, 1,2,5,6-tetrahydro-3-(4-isopropoxy-1,2,5-thiadiazol-3-yl)-1-methylpyridineoxalate]	3.5
CN1CCC=C(c2nsnc2CC2CC2)C1 [Compound 62, 3-(4-cyclopropylmethyl-1,2,5-thiadiazol-3-yl)-1,2,5,6-tetrahydro-1-methylpyridinium oxalate]	32
Cl.Clc1nsnc1C1=CCCNC1 [Compound 17, 3-(4-chloro-1,2,5-thiadiazol-3-yl)-1,2,5,6-tetrahydropyridine hydrochloride]	19.0
